Results published in patent publication US20240228986A1, “ENGINEERED CELLS, ENZYMES, AND METHODS FOR PRODUCING CANNABINOIDS” (priority 2021, published 2024).

System: MPT21 (SEQ ID NO: 22; chimera of MPT1 and MPT4) as fusion GPS1.1-F11-MPT21 (SEQ ID NO: 25), expressed in Yarrowia
Assay: In vitro activity assay with microsomes of GPS1.1-F11-MPT21
Assay type: biochemical
Conditions: microsomes from Yarrowia sCL-SE-0128 + pCL-SE-0664; varying concentrations of OA and DVA; enzyme not purified to homogeneity
Procedure: Yarrowia cells sCL-SE-0128 expressing the fusion of GPS1.1 with MPT4 (pCL-SE-0406) and MPT21 (pCL-SE-0664) were grown at 30 mL culture at 30 C for 2 days in YNB with 20% glucose. The cells were collected by centrifugation, washed with homogenization buffer (MAK340-1KT Sigma Aldrich) and were resuspended in 2 mL of homogenization buffer. The suspended cells were transferred to 5 mL tubes containing 1 mL of glass beads and were homogenized by shaking for 5 min at max speed in a shaker (Retsch MM400). The lysed cells were transferred to new tubes and microsomes were prepared as described in the kit (MAK340-1KT). Activity assays were performed using microsomes from both enzymes and varying concentrations of OA and DVA.

Work on CCCc1cc(O)cc(O)c1C(=O)O [DVA, divarinic acid] yielded a Km of 62.2 µM.
In the case of CCCCCc1cc(O)cc(O)c1C(=O)O [OA, olivetolic acid], the Km is reported as 20.9 µM.
